From patent US8952054B2, “Small molecule inhibitors of MUC1 and methods of identifying the same” (Dana-Farber Cancer Institute, Inc., priority 2010, dated 2015)

Key:
[1] = Body weight of nude mice given peptide; assay type: in vivo, nude (nu/nu) mice
Procedure: To determine if administration of the MUC1/CQC peptide is associated with effects on body weight, five female nude (nu/nu) mice were injected intraperitoneally (IP) once each day at a dose of 50 mg/kg. […] To assess anti-tumor activity, ZR-75-1 cells (1×10^7) were implanted subcutaneously into the flanks of nude mice. After 12 d, mice bearing tumors of approximately 150 mm^3 were treated with the MUC1/CQC peptide at doses of 10 and 50 mg/kg/d. As controls, mice were treated with vehicle alone or with the MUC1/AQA peptide. Administration of the MUC1/CQC peptide at 10 mg/kg/d×21 d slowed growth as compared to that obtained with the MUC1/AQA peptide given at 50 mg/kg/d (FIG. 5A). […] Consequently, treatment was stopped and the mice were monitored for regrowth. […] To assess in part the basis for the activity, tumors harvested from control and treated mice were examined by histopathology. […] Sections of the tumors were also stained with an antibody against MUC1.

MCF-7 cells = assay: Cell cycle distribution and necrosis by flow cytometry, MCF-7; assay type: cell-based, human; conditions: MCF-7, 5 μM, 3 and 4 d
Procedure: FIGS. 3A-D. MUC1/CQC peptide induces S phase arrest and necrosis. ZR-75-1 (FIGS. 2A-B) and MCF-7 (FIGS. 2C-D) cells were treated with 5 μM MUC1/CQC or MUC1/AQA for 3 and 4 d. Cells were fixed and analyzed for cell cycle distribution by flow cytometry (FIGS. 2A and 2C). The percentage of cells in G1, S and G2/M phases is included in the panels. Cells were also stained with propidium iodide and analyzed by flow cytometry for necrosis (FIGS. 2B and 2D). The percentage of necrotic cells is included in the panels.
Cells were harvested, washed with PBS, fixed with 80% ethanol, and incubated in PBS containing 40 μg/ml RNAse and 40 μg/ml propidium iodide for 30 min at 37° C. Cell cycle distribution was determined by flow cytometry. Sub-G1 DNA content was assessed by staining ethanol-fixed and citrate buffer-permeabilized cells with propidium iodide and monitoring by flow cytometry as described (Yin et al., 2007). For assessment of necrosis, cells were incubated with 1 μg/ml propidium iodide/PBS for 5 min at room temperature and then monitored by flow cytometry as described (Yin et al., 2007).

MCF-10A cells = assay: Cell cycle distribution and growth of MCF-10A cells (peptide); assay type: cell-based, human; conditions: 5 μM
Procedure: FIGS. 4A-E. Selectivity of MUC1/CQC for MUC1 expressing breast cancer cells. (FIG. 4A) ZR-75-1 cells were stably infected with an empty lentivirus (vector) or one expressing a MUC1 siRNA. Lysates for the infected cells were immunoblotted with the indicated antibodies. (FIG. 4B) ZR-75-1/vector cells were left untreated (diamonds), and ZR-75-1/vector (squares) and ZR-75-1/MUC1 siRNA (triangles) cells were treated with 5 μM MUC1/CQC peptide for the indicated times. Viable cell number was determined by trypan blue exclusion. (FIG. 4C) 293 cells were left untreated (diamonds), and treated with 5 μM MUC1/CQC (squares) or MUC1/AQA (triangles) for the indicated times. Viable cell number was determined by trypan blue exclusion. (FIG. 4D) MCF-10A cells were left untreated (left panel), and treated with 5 μM MUC1/CQC (middle panel) or MUC1/AQA (right panel). At 3 d, cells were analyzed for cell cycle distribution. […] Viable cell number was determined by trypan blue exclusion.
Human breast cancer ZR-75-1, ZR-75-1/vector, ZR-75-1/MUC1siRNA (Ren et al., 2004) cell lines were grown in RPMI1640 medium supplemented with 10% heat-inactivated fetal bovine serum (HI-FBS), 100 U/ml penicillin, and 100 μg/ml streptomycin (Invitrogen) in a humidified incubator at 37° C. and 5% CO2. […] Viability was determined by trypan blue exclusion. […]

HCC1937 cells = assay: HCC1937 viability (MTS); assay type: cell-based, human; conditions: HCC1937 (low to undetectable MUC1-C), 3 d
Procedure: FIGS. 16A-D—Effects of apigenin on breast cancer cells without and with endogenous MUC1 expression. (FIG. 16A) Lysates from human MCF-7, HCC1937 and BT474 cells were immunoblotted with the indicated antibodies. (FIG. 16B) BT474 cells were treated with indicated concentrations of apigenin and baicalein for 3 d, washed and then treated for an additional 3 d. Lysates were immunoblotted with the indicated antibodies. (FIG. 16C) BT474 (triangles) and HCC1937 (squares) cells were treated with apigenin for 3 d. Viable cell numbers were determined by MTS assay. The results (mean+SD of 3 determinations) are expressed as percentage of control growth in the presence of DMSO. (FIG. 16D) BT474 cells were plated at a density of 5000 cells/6 cm dish. At 24 h after seeding, DMSO or apigenin at concentrations of 25, 50 and 75 μM was added to the medium. After 2 weeks, colonies were stained with crystal violet. The results (mean+SD of 3 determinations) are expressed as percentage of control colony formation in the presence of DMSO.

Row | SMILES | body weight ([1]; 50 mg/kg IP once each day over 11 d) | body weight ([1]; next 28 d after stopping administration, data not shown) | cell cycle distribution (MCF-7 cells) | necrosis (propidium iodide) (MCF-7 cells) | growth / viable cell number (MCF-10A cells) | cell cycle distribution (MCF-10A cells; 3 d) | viability (MTS) (HCC1937 cells)
1 | CC[C@H](C)[C@H](NC(=O)[C@H](CC(=O)O)NC(=O)[C@H](CC(C)C)NC(=O)[C@H](CCC(N)=O)NC(=O)CNC(=O)[C@H](Cc1ccc(O)cc1)NC(=O)[C@H](CC(N)=O)NC(=O)[C@H](CCCCN)NC(=O)[C@H](CCCNC(=N)N)NC(=O)[C@H](CCCNC(=N)N)NC(=O)[C@H](CS)NC(=O)[C@H](CCC(N)=O)NC(=O)[C@H](CS)NC(=O)[C@@H](CCCNC(=N)N)NC(=O)[C@@H](CCCNC(=N)N)NC(=O)[C@@H](CCCNC(=N)N)NC(=O)[C@@H](CCCNC(=N)N)NC(=O)[C@@H](CCCNC(=N)N)NC(=O)[C@@H](CCCNC(=N)N)NC(=O)[C@@H](CCCNC(=N)N)NC(=O)[C@@H](CCCNC(=N)N)NC(=O)[C@H](N)CCCNC(=N)N)C(=O)N[C@@H](Cc1ccccc1)C(=O)N1CCC[C@H]1C(=O)O [MUC1/CQC] | no apparent effect | no subsequent effect | arrest of growth in S phase | induction of necrosis | no effect | no effect | –
2 | O=c1cc(-c2ccc(O)cc2)oc2cc(O)cc(O)c12 [Apigenin, 4′,5,7-trihydroxyflavone] | – | – | – | – | – | – | not
